pEC50, pIC50: −log10 of the molar value.
Columns and labels:
[1] = Drug metabolism in Sprague-Dawley rat assessed as N-[6-(3-Hydroxypropyl)-5,11-dioxo-6,11-dihydro-5Hindeno[1,2-c]isoquinolin-3-yl]acetamide level in mammary gland at 40 mg/kg, po administered 3 days; type: ADME, organism-based; design: dose 40 mg/kg, route oral; conditions: in vivo, 72 h
Serum [2] = assay: Drug metabolism in Sprague-Dawley rat assessed as N-[6-(3-Hydroxypropyl)-5,11-dioxo-6,11-dihydro-5Hindeno[1,2-c]isoquinolin-3-yl]acetamide level in serum at 40 mg/kg, po administered 3 days; type: ADME, organism-based; design: dose 40 mg/kg, route oral; conditions: in vivo, 72 h
Liver [3] = assay: Drug metabolism in Sprague-Dawley rat assessed as N-[6-(3-Hydroxypropyl)-5,11-dioxo-6,11-dihydro-5Hindeno[1,2-c]isoquinolin-3-yl]acetamide level in liver at 40 mg/kg, po administered 3 days; type: ADME, organism-based; design: dose 40 mg/kg, route oral; conditions: in vivo, 72 h
[4] = Drug metabolism in Sprague-Dawley rat assessed as 3-Amino-11-hydroxy-6-(3-hydroxypropyl)-6,11-dihydro-5Hindeno[1,2-c]isoquinolin-5-one level in mammary gland at 40 mg/kg, po administered 3 days; type: ADME, organism-based; design: dose 40 mg/kg, route oral; conditions: in vivo, 72 h
Serum [5] = assay: Drug metabolism in Sprague-Dawley rat assessed as 3-Amino-11-hydroxy-6-(3-hydroxypropyl)-6,11-dihydro-5Hindeno[1,2-c]isoquinolin-5-one level in serum at 40 mg/kg, po administered 3 days; type: ADME, organism-based; design: dose 40 mg/kg, route oral; conditions: in vivo, 72 h
Liver [6] = assay: Drug metabolism in Sprague-Dawley rat assessed as 3-Amino-11-hydroxy-6-(3-hydroxypropyl)-6,11-dihydro-5Hindeno[1,2-c]isoquinolin-5-one level in liver at 40 mg/kg, po administered 3 days; type: ADME, organism-based; design: dose 40 mg/kg, route oral; conditions: in vivo, 72 h
[7] = Drug metabolism in Sprague-Dawley rat assessed as 6-(3-Hydroxypropyl)-3-amino-5H-indeno[1,2- c]-isoquinoline-5,11(6H)dione level in mammary gland at 40 mg/kg, po administered 3 days; type: ADME, organism-based; design: dose 40 mg/kg, route oral; conditions: in vivo, 72 h
Serum [8] = assay: Drug metabolism in Sprague-Dawley rat assessed as 6-(3-Hydroxypropyl)-3-amino-5H-indeno[1,2- c]-isoquinoline-5,11(6H)dione level in serum at 40 mg/kg, po administered 3 days; type: ADME, organism-based; design: dose 40 mg/kg, route oral; conditions: in vivo, 72 h
Liver [9] = assay: Drug metabolism in Sprague-Dawley rat assessed as 6-(3-Hydroxypropyl)-3-amino-5H-indeno[1,2- c]-isoquinoline-5,11(6H)dione level in liver at 40 mg/kg, po administered 3 days; type: ADME, organism-based; design: dose 40 mg/kg, route oral; conditions: in vivo, 72 h
[10] = Drug metabolism in Sprague-Dawley rat assessed as 3-Amino-6-(3-aminopropyl)-11-hydroxy-6,11-dihydro-5Hindeno[1,2-c]isoquinolin-5-one level in mammary gland at 40 mg/kg, po administered 3 days; type: ADME, organism-based; design: dose 40 mg/kg, route oral; conditions: in vivo, 72 h
Serum [11] = assay: Drug metabolism in Sprague-Dawley rat assessed as 3-Amino-6-(3-aminopropyl)-11-hydroxy-6,11-dihydro-5Hindeno[1,2-c]isoquinolin-5-one level in serum at 40 mg/kg, po administered 3 days; type: ADME, organism-based; design: dose 40 mg/kg, route oral; conditions: in vivo, 72 h
Liver [12] = assay: Drug metabolism in Sprague-Dawley rat assessed as 3-Amino-6-(3-aminopropyl)-11-hydroxy-6,11-dihydro-5Hindeno[1,2-c]isoquinolin-5-one level in liver at 40 mg/kg, po administered 3 days; type: ADME, organism-based; design: dose 40 mg/kg, route oral; conditions: in vivo, 72 h
[13] = Cytotoxicity against human HEK293 cells assessed as cell survival at 50 uM relative to control; type: cell-based; conditions: read-out: Survival
[14] = Inhibition of TNFalpha-induced human NFkappaB activity in HEK293 cells incubated for 6 hrs followed by compound wash out measured after 5 mins by luciferase assay; type: cell-based
HEK293 = assay: Inhibition of TNFalpha-induced human NFkappaB activity in HEK293 cells at 50 uM incubated for 6 hrs followed by compound wash out measured after 5 mins by luciferase assay; type: cell-based
[15] = target: T1, Retinoic acid receptor RXR-alpha (Homo sapiens, UniProt P19793); assay: Agonist activity at human RXRalpha expressed in african green monkey COS1 cells assessed as induction of RXRE transcriptional activity after 12 hrs by luciferase reporter gene assay; type: functional, cell-based, COS-1
T1 sequence (P19793 whole entry): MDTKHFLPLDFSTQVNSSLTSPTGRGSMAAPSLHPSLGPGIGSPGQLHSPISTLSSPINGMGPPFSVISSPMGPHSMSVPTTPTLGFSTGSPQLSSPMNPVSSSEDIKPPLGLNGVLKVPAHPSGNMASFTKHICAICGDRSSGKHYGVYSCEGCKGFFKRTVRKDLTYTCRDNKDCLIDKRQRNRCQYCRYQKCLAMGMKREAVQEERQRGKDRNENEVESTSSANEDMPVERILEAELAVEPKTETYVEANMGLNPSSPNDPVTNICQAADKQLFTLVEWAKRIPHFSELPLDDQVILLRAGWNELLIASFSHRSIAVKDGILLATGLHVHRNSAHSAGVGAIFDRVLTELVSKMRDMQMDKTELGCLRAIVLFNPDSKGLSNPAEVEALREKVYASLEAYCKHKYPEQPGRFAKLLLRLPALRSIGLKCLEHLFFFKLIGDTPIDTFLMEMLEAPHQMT

[16] = Cytotoxicity against african green monkey COS1 cells assessed as cell survival at 50 uM relative to control; type: cell-based; conditions: chlorocebus aethiops, COS-1 cells; read-out: Survival
[17] = Drug metabolism in Sprague-Dawley rat assessed as N-[6-(3-Aminopropyl)-5,11-dioxo-6,11-dihydro-5H-indeno- [1,2-c]isoquinolin-3-yl]acetamide level in mammary gland at 40 mg/kg, po administered 3 days; type: ADME, organism-based; design: dose 40 mg/kg, route oral; conditions: in vivo, 72 h
Liver [18] = assay: Drug metabolism in Sprague-Dawley rat assessed as N-[6-(3-Aminopropyl)-5,11-dioxo-6,11-dihydro-5H-indeno- [1,2-c]isoquinolin-3-yl]acetamide level in liver at 40 mg/kg, po administered 3 days; type: ADME, organism-based; design: dose 40 mg/kg, route oral; conditions: in vivo, 72 h
Serum [19] = assay: Drug metabolism in Sprague-Dawley rat assessed as N-[6-(3-Aminopropyl)-5,11-dioxo-6,11-dihydro-5H-indeno- [1,2-c]isoquinolin-3-yl]acetamide level in serum at 40 mg/kg, po administered 3 days; type: ADME, organism-based; design: dose 40 mg/kg, route oral; conditions: in vivo, 72 h
[20] = Drug metabolism in Sprague-Dawley rat assessed as parent compound level in liver at 40 mg/kg, po administered 3 days; type: ADME, organism-based; design: dose 40 mg/kg, route oral; conditions: read-out: Drug metabolism
[21] = Drug metabolism in Sprague-Dawley rat assessed as parent compound level in mammary gland at 40 mg/kg, po administered 3 days; type: ADME, organism-based; design: dose 40 mg/kg, route oral; conditions: read-out: Drug metabolism
Liver microsomes [22] = assay: Metabolic stability in human liver microsomes assessed as GSH conjugate formation at 10 uM; type: ADME, Microsome
Liver microsomes [23] = assay: Half life in human liver microsomes at 1 uM; type: ADME, Microsome
Liver microsomes [24] = assay: Drug metabolism in human liver microsomes assessed as formation of 6-(3-hydroxypropyl)-3-amino-5H-indeno[1,2-c]-isoquinoline-5,11(6H)-dione at 1 uM after 60 mins in presence of NADPH and monoamine oxidase inhibitors clorgiline, pargyline; type: ADME, Microsome; conditions: 1 h
Liver microsomes [25] = assay: Drug metabolism in human liver microsomes assessed as formation of 6-(3-hydroxypropyl)-3-amino-5H-indeno[1,2-c]-isoquinoline-5,11(6H)-dione at 1 uM preincubated for 10 mins prior to NADPH addition measured 60 mins post NADPH addition; type: ADME, Microsome; conditions: 1 h
Hepatocyte [26] = assay: Drug metabolism in human hepatocytes assessed as formation of 6-(3-aminopropyl)-3-((2R,3R,4S,5S,6R)-3,4,5-trihydroxy-6-(hydroxymethyl)tetrahydro-2H-pyran-2-ylamino)-5H-indeno[1,2-c]isoquinoline-5,11(6H)-dione at 50 uM after 4 hrs; type: ADME, cell-based
Hepatocyte [27] = assay: Drug metabolism in human hepatocytes assessed as formation of N-[6-(3-Hydroxypropyl)-5,11-dioxo-6,11-dihydro-5H-5Hindeno[ 1,2-c]isoquinolin 3-yl]acetamide at 50 uM after 4 hrs; type: ADME, cell-based
Hepatocyte [28] = assay: Drug metabolism in human hepatocytes assessed as formation of 3-Amino-11-hydroxy-6-(3-hydroxypropyl)-6,11-dihydro-5H-5Hindeno[1,2-c]isoquinolin-5-one at 50 uM after 4 hrs; type: ADME, cell-based
Hepatocyte [29] = assay: Drug metabolism in human hepatocytes assessed as formation of 6-(3-Hydroxypropyl)-3-amino 5H-indeno[1,2c]-isoquinoline-5,11(6H)dione at 50 uM after 4 hrs; type: ADME, cell-based
Hepatocyte [30] = assay: Drug metabolism in human hepatocytes assessed as formation of N-[6-(3-Aminopropyl)-11-hydroxy-5-oxo-6,11-dihydro-5H-5Hindeno[ 1,2-c]isoquinolin-3-yl]acetamide at 50 uM after 4 hrs; type: ADME, cell-based
Hepatocyte [31] = assay: Drug metabolism in human hepatocytes assessed as formation of N-[6-(3-Aminopropyl)-5,11-dioxo-6,11-dihydro-5H-indeno-[1,2-c]isoquinolin-3-yl]acetamide at 50 uM after 4 hrs; type: ADME, cell-based
Hepatocyte [32] = assay: Drug metabolism in human hepatocytes assessed as formation of 3-Amino 6-(3-aminopropyl)-11-hydroxy-6,11-dihydro-5H-indeno[1,2-c]isoquinolin-5-one at 50 uM after 4 hrs; type: ADME, cell-based
Liver microsomes [33] = assay: Drug metabolism in human liver microsomes assessed as formation of 3-Amino 6-(3-aminopropyl)-11-hydroxy-6,11-dihydro-5H-indeno[1,2-c]isoquinolin-5-one at 1 uM preincubated for 10 mins prior to NADPH addition measured 60 mins post NADPH addition; type: ADME, Microsome; conditions: 1 h
[34] = Drug metabolism in Sprague-Dawley rat assessed as parent compound level in serum at 40 mg/kg, po administered 3 days; type: ADME, organism-based; design: dose 40 mg/kg, route oral; conditions: read-out: Drug metabolism
Plasma = conditions: human, 10 µM
Description: Plasma protein binding in human plasma at 10 uM

Structure (SMILES): NCCCn1c2c(c3ccc(N)cc3c1=O)C(=O)c1ccccc1-2
- Drug metabolism [1]: Not Active
- Drug metabolism (Serum [2]): Not Active
- Drug metabolism (Liver [3]): Active
- Drug metabolism [4]: Not Active
- Drug metabolism (Serum [5]): Not Active
- Drug metabolism (Liver [6]): Active
- Drug metabolism [7]: Not Active
- Drug metabolism (Serum [8]): Not Active
- Drug metabolism (Liver [9]): Active
- Drug metabolism [10]: Not Active
- Drug metabolism (Serum [11]): Not Active
- Drug metabolism (Liver [12]): Active
- viability at 50 µM [13]: 109%
- pIC50 [14]: 4.58
- inhibition (HEK293): 84.9%
- pEC50 [15]: 5.47
- viability at 50 µM [16]: 58.6%
- Drug metabolism [17]: Not Active
- Drug metabolism (Liver [18]): Active
- Drug metabolism (Serum [19]): Active
- concentration at 72 h [20]: 4300 ng/g
- concentration at 72 h [21]: 300 ng/g
- Stability (Liver microsomes [22]): Stable
- t1/2 (Liver microsomes [23]): 2.17 h
- Drug metabolism (Liver microsomes [24]): Active
- Drug metabolism (Liver microsomes [25]): Active
- Drug metabolism (Hepatocyte [26]): Active
- Drug metabolism (Hepatocyte [27]): Active
- Drug metabolism (Hepatocyte [28]): Active
- Drug metabolism (Hepatocyte [29]): Active
- Drug metabolism (Hepatocyte [30]): Active
- Drug metabolism (Hepatocyte [31]): Active
- Drug metabolism (Hepatocyte [32]): Active
- Drug metabolism (Liver microsomes [33]): Active
- concentration at 72 h [34]: 800 ng/mL
- PPB (Plasma): 75%

From ChEMBL document CHEMBL2169830, “Identification, synthesis, and biological evaluation of the metabolites of 3-amino-6-(3'-aminopropyl)-5H-indeno[1,2-c]isoquinoline-5,11-(6H)dione (AM6-36), a promising rexinoid lead compound for the development of cancer chemotherapeutic and chemopreventive agents” (J Med Chem, 2012)
